Laboratory results reported in patent US4842847A, “Dental calculus inhibiting compositions” (The B. F. Goodrich Company, priority 1987, dated 1989).
Like-named read-outs stand apart in the source and are kept apart here.

Conditions: pyrophosphate 25 ppm; for Time of Crystal Growth Inhibition: no anticalculus agent, pH 7.20, 25° C.
Procedure: The in vitro formation of hydroxyapatite (HAP) was measured titrimetrically using the pH - stat method described in Example I, above.
The pyrophosphate was used at the level of 25 ppm.

effectiveness of pyrophosphate when incubated with enzyme (in words) (absence of anticalculus agent polymer, with enzyme): drastically reduced
SMILES: O=P(O)(O)OP(=O)(O)O [pyrophosphate]
Time of Crystal Growth Inhibition (pyrophosphatase No): 30 min
Time of Crystal Growth Inhibition (pyrophosphatase Yes): 11 min
delay of HAP formation (in words) (no enzyme): significantly delays HAP forma;tion
